Measured values taken from patent US5726195A, “Aminoacyl adenylate mimics as novel antimicrobial and antiparasitic agents” (Cubist Pharmaceuticals, Inc., priority 1996, dated 1998).
≈ marks a conversion by molar mass, not a printed value.

Columns and labels:
[1] = target: E. Coli. IleRS (isoleucyl-tRNA synthetase) (Escherichia coli, UniProt P00956); test: Inhibition of isoleucyl-tRNA synthetase (aminoacylation of tRNA with [3H]isoleucine); format: biochemical; conditions: E. coli enzyme; irreversible inhibitors: values are 50% of the active enzyme concentration; read-out: IC50 E.Coli. IleRS
E. Coli. IleRS (isoleucyl-tRNA synthetase), sequence (P00956 whole entry): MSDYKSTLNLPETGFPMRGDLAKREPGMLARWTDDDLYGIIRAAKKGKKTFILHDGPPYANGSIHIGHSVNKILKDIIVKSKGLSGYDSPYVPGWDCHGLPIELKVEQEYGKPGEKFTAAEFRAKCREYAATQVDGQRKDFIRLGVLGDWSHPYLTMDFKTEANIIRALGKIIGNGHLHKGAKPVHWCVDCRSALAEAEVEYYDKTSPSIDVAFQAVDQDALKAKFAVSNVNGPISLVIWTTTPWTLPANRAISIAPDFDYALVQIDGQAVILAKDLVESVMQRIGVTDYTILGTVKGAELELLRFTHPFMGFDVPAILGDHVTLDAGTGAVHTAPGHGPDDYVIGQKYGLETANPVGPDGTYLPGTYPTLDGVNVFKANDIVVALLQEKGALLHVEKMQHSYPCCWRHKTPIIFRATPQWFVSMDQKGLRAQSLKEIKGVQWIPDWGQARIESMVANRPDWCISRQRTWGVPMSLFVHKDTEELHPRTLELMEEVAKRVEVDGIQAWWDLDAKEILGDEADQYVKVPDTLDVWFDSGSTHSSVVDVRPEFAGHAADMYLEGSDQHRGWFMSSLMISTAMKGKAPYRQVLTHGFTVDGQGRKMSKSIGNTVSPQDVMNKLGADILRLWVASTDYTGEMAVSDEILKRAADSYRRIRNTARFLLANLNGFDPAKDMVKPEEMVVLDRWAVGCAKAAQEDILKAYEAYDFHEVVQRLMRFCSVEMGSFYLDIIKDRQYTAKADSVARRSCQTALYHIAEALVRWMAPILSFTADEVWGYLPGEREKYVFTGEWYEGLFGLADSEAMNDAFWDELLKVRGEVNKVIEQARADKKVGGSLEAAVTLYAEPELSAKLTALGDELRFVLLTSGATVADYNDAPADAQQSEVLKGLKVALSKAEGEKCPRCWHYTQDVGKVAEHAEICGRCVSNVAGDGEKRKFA
Protocol: The extent of aminoacylation of tRNA with isoleucine catalyzed by isoleucyl-tRNA synthetase enzyme was measured by monitoring the incorporation of [3H] isoleucine into trichloroacetic acid-precipitable tRNA in the presence of a compound of Formula I, as compared with activity in the absence of inhibitor. The isoleucyl-tRNA synthetase enzymes are well known in the prior art and can be obtained and purified by known methods (for example see: D. Kern et at., Biochimie, 61, 1257-1272 (1979) and J. Gilbart et al., Antimicrobial Agents and Chemotherapy, 37 (1), 32-38 (1993)).
Isoleucyl-tRNA synthetase enzyme (0.08-2.0 nM, preferably, 0.4 nM) was first pre-incubated at 25° C. with 0.05 mg/ml bovine serum albumin, 10 mM DTT, 2.5% dimethyl sulfoxide, with or without a compound of Formula I, for 20 minutes. At this point a substrate solution (a solution containing the following: ATP, [^3 H]isoleucine, tRNA, HEPES, magnesium chloride, and potassium chloride) was added to give a final concentration of 0.0286 mg/ml bovine serum albumin, 5.7 mM DTT, 4 mM ATP, 5-20 μM [^3 H] isoleucine (1-15 Ci/mmol), 90 μM crude tRNA or 2 μM isoleucine specific tRNA, 1.4% dimethyl sulfoxide, 30 mM HEPES (pH 7.5), 10 mM magnesium chloride, and 50 mM potassium chloride and incubated at 25° C. Aliquots were removed at selected times (e.g. 5, 10, 20 minutes) and applied to 3MM filter paper discs (Whatman) and then dropped into 5% (wt/vol) trichloroacetic acid for >5 minutes. Filters were washed for three 10-minute periods in 5% trichloroacetic acid, rinsed in 95% ethanol and diethyl ether, and radioactivity was measured with Betafluor™ (National Diagnostics) by liquid scintillation counting.
Inhibitor activity is reported in Table II as an IC50 value (inhibitor concentration causing 50% inhibition of enzyme activity) per a known amount of active enzyme. In the case of irreversible inhibitors (1:1 stoichiometry) these values are 50% of the active enzyme concentration. The IC50 (in nM, E. coli) values of representative compounds of the present invention are listed in the second column of Table II.

[2] = system: S. epidermidis ATCC 33501; test: Whole cell antimicrobial screen, MIC; format: cell-based; conditions: Staphylococcus epidermidis, ATCC33501
Protocol: (§1) Compounds were tested for antimicrobial activity against a panel of organisms according to standard procedures described by the National Committee for Clinical Laboratory Standards (NCCLS document M7-A3, Vol. 13, No. 25, 1993/NCCLS document M27-P, Vol. 12, No. 25, 1992). Compounds were dissolved in 100% dimethyl sulfoxide and were diluted to the final reaction concentration (0.1 μg/mL-500 μg/mL) in microbial growth media. In al cases the final concentration of dimethyl sulfoxide incubated with cells is less than or equal to 1%. For minimum inhibitory concentration (MIC) calculations, 2-fold dilutions of compounds were added to wells of a microtiter plate containing 5×10^4 bacteria or fungal cells in a final volume of 100 lambda of an appropriate media (Mueller-Hinton Broth; Haemophilus Test Media; Mueller-Hinton Broth+5% Sheep Blood; or […]). Plates were incubated overnight at an appropriate temperature (30° C.-37° C.) and optical densities (measure of cell growth) were measured using a commercial plate reader. The MIC value is defined as the lowest compound concentration inhibiting growth of the test organism.

[3] = system: S. aureus ATCC 6538P; test: Whole cell antimicrobial screen, MIC; format: cell-based; conditions: Staphylococcus aureus, ATCC6538P
Protocol: as §1

[4] = system: C. albicans ATCC 10231; test: Whole cell antimicrobial screen, MIC; format: cell-based; conditions: Candida albicans, ATCC10231
Protocol: as §1

[5] = system: S. aureus ATCC 14154; test: Whole cell antimicrobial screen, MIC; format: cell-based; conditions: Staphylococcus aureus, ATCC14154
Protocol: as §1

[6] = system: E. faecium ATCC 6569; test: Whole cell antimicrobial screen, MIC; format: cell-based; conditions: Enterococcus faecium, ATCC6569
Protocol: as §1

[7] = system: S. saprophyticus ATCC 35552; test: Whole cell antimicrobial screen, MIC; format: cell-based; conditions: Staphylococcus saprophyticus, ATCC35552
Protocol: as §1

[8] = system: E. faecalis ATCC 33011; test: Whole cell antimicrobial screen, MIC; format: cell-based; conditions: Enterococcus faecalis, ATCC33011
Protocol: as §1

[9] = system: K. pneumonia ATCC 4352; test: Whole cell antimicrobial screen, MIC; format: cell-based; conditions: Klebsiella pneumoniae, ATCC4352
Protocol: as §1

[10] = system: B. subtilis ATCC 6633; test: Whole cell antimicrobial screen, MIC; format: cell-based; conditions: Bacillus subtilis, ATCC6633
Protocol: as §1

SMILES	IC50 [1] [nM]	MIC [2] [µg/mL]	MIC [3] [µg/mL]	MIC [4] [µg/mL]	MIC [5] [µg/mL]	MIC [6] [µg/mL]	MIC [7] [µg/mL]	MIC [8] [µg/mL]	MIC [9] [µg/mL]	MIC [10] [µg/mL]
CC[C@H](C)[C@H](N)C(=O)NS(=O)(=O)OC[C@H]1O[C@@H](CCn2nnc(-c3ccc(Oc4nccs4)cc3)n2)[C@H](O)[C@@H]1O [XVII]	1	25 (≈ 41.8 µM)	100 (≈ 167 µM)	> 500	500 (≈ 837 µM)	50 (≈ 83.7 µM)	50 (≈ 83.7 µM)	> 500	–	–
CC[C@H](C)[C@H](N)C(=O)NS(=O)(=O)OC[C@H]1O[C@@H](CCn2nnc(-c3ccc(Oc4ccccn4)cc3)n2)[C@H](O)[C@@H]1O [XVI]	0.7	25 (≈ 42.3 µM)	100 (≈ 169 µM)	100 (≈ 169 µM)	100 (≈ 169 µM)	50 (≈ 84.5 µM)	50 (≈ 84.5 µM)	500 (≈ 845 µM)	–	–
CC[C@H](C)[C@H](N)C(=O)NS(=O)(=O)OC[C@H]1O[C@@H](CCn2nnc(-c3ccc(Oc4ccc(Oc5ccccc5)cc4)cc3)n2)[C@H](O)[C@@H]1O [XV]	1.8	5 (≈ 7.32 µM)	10 (≈ 14.6 µM)	> 500	10 (≈ 14.6 µM)	25 (≈ 36.6 µM)	10 (≈ 14.6 µM)	> 500	–	–
CC[C@H](C)[C@H](N)C(=O)NS(=O)(=O)OC[C@H]1O[C@@H](CCn2nnc(-c3ccc(-c4ccc(F)c(F)c4)cc3)n2)[C@H](O)[C@@H]1O [XXIII]	2.9	10 (≈ 16.4 µM)	50 (≈ 81.9 µM)	10 (≈ 16.4 µM)	100 (≈ 164 µM)	100 (≈ 164 µM)	25 (≈ 40.9 µM)	–	100 (≈ 164 µM)	50 (≈ 81.9 µM)
CC[C@H](C)[C@H](N)C(=O)NS(=O)(=O)OC[C@H]1O[C@@H](CCn2nnc(CCCOc3ccccc3)n2)[C@H](O)[C@@H]1O [XXIX]	0.3	25 (≈ 44.9 µM)	500 (≈ 898 µM)	> 500	> 500	> 500	500 (≈ 898 µM)	> 500	–	–
CC[C@H](C)[C@H](N)C(=O)NS(=O)(=O)OC[C@H]1O[C@@H](Cn2nnc(Cc3ccc(Oc4ccccc4)cc3)n2)[C@H](O)[C@@H]1O [XXVII, [S-(R*,R*)]-2,5-anhydro-1-deoxy-1-[5-(4-phenoxyphenylmethyl)-2H-tetrazol-2-yl]-D-allitol 6-(2-amino-3-methyl-1-oxopentyl)sulfamate]	135	> 500	> 500	> 500	> 500	> 500	> 500	> 500	–	–
CC[C@H](C)[C@H](N)C(=O)NS(=O)(=O)OC[C@H]1O[C@@H](CCn2nnc(-c3ccc([N+](=O)[O-])o3)n2)[C@H](O)[C@@H]1O [XXVIII]	8.8	32 (≈ 60 µM)	128 (≈ 240 µM)	500 (≈ 937 µM)	128 (≈ 240 µM)	> 128	> 128	> 128	–	–
CC[C@H](C)[C@H](N)C(=O)NS(=O)(=O)OC[C@H]1O[C@@H](CCn2nnc(-c3ccc(-c4ccccn4)nc3)n2)[C@H](O)[C@@H]1O [XXV]	0.5	25 (≈ 43.4 µM)	500 (≈ 867 µM)	–	100 (≈ 173 µM)	> 500	50 (≈ 86.7 µM)	> 500	> 500	> 500
CC[C@H](C)[C@H](N)C(=O)NS(=O)(=O)OC[C@H]1O[C@@H](CCn2nnc(Cc3ccc(Oc4ccccc4)cc3)n2)[C@H](O)[C@@H]1O [XXX]	2.7	25 (≈ 41.3 µM)	100 (≈ 165 µM)	> 200	500 (≈ 827 µM)	100 (≈ 165 µM)	100 (≈ 165 µM)	500 (≈ 827 µM)	–	–
